Target: hNav1.7 (Homo sapiens, UniProt Q15858)
Assay: Manual patch clamp experiment of hNav1.7 channel (CHO-hNav1.7 stable cell line)
Format: cell-based
Excerpt: Patch voltage clamp electrophysiology allows for the direct measurement and quantification of current block of voltage-gated sodium channels (NaV's), and allows the determination of the time and voltage-dependence of block which has been interpreted as differential binding to the resting, open and inactivated states of the sodium channel to reflect the compound's inhibitory or activating effects (Hille, B., Journal of General Physiology (1977), 69: 497-515).
Representative compounds of the present disclosure were performed using a manual patch clamp experiment and the purpose of this study was to test the effect of compounds on this ion channel current on a stable cell line transfected with a specific ion channel using a manual patch clamp method, the used stable cell lines CHO-hNav1.7 and HEK-hNav1.5 were from Genionics and WuXi Apptec (Shanghai) respectively.
Manual patch clamp experimental program is as follows:
(1) Preparation of solutions and compounds: The whole cell patch clamp technique was used to record hNav1.7 and hNav1.5 currents. In the experiment, the composition of extracellular fluid (mM): HEPES: 5, NaCl: 40, KCl: CaCl2:1, MgCl2:1, CdCl2:0.1, TEA-Cl: 20. The pH was adjusted to 7.3 with NaOH and the osmotic pressure was adjusted to 310-320 mOsm with sucrose, filtered and stored at 4° C. The composition of the intracellular fluid (mM): HEPES: 10, NaCl: 10, CsOH: 5, CsF: 140, EGTA: 1. The pH was adjusted to 7.3 with CsOH and the osmotic pressure was adjusted to 280-290 mOsm with sucrose, filtered and stored at −20° C.
The positive control and the test compound were firstly dissolved in 100% DMSO (Sigma-Aldrich, D2650), configured as stock solution at a concentration (100 nM, 1000 nM).) The above stock solution was serially diluted with DMSO prior to the experiment, the solution was further diluted with extracellular solution to obtain the desired concentration of the test solution.
(2) Manual Patch Clamp Experiment: The cell suspension was added to a 35 mm petri dish and placed on an inverted microscope stage, the cells were perfused with an extracellular fluid and the flow rate was 1-2 mL/min after cell adherence. The glass microelectrode was pulled in two steps by a microelectrode puller with an inlet water resistance of 2-5 MΩ. A/D-D/A digital-analog conversion was performed by Digidata 1440 (Molecular Devices) and pCLAMP software (version 10.2, Molecular Devices) for stimulation and signal acquisition; the signal was amplified by patch clamp amplifier (Multiclamp 700B, Molecular Devices), filtering is 4 KHz.
Two different voltage stimulation procedures were used in the hNav1.7 and hNav1.5 manual patch clamp experiments.
One is the inactivation stimulation program, the clamp potential is set at V1/2 of the corresponding channel, ie about 50% of the channels are inactivated, then the voltage is applied to −120 mV for 50 ms, then depolarized to −10 mV for 20 ms leading to sodium current, and finally back to the clamp potential. This stimulation program can also be called channel state-dependent voltage stimulation program.
The other is the non-inactivation stimulation program, the clamp potential is maintained at −120 mV, voltage stimulation is given to −10 mV for 20 ms leading to sodium current, and finally back to the clamp potential. That is all channels have not experienced inactivation status, but activate directly from the resting state under the conditions of the stimulation program.
The time intervals of these two voltage stimulation program were 10 s. The inhibitory effect of the compound was calculated by the change of the current before and after dosing, the IC50 value was fitted by the Hill equation. […] The results are shown in Table 33 and Table 34, respectively.

Chain of hNav1.7 (Q15858 whole entry): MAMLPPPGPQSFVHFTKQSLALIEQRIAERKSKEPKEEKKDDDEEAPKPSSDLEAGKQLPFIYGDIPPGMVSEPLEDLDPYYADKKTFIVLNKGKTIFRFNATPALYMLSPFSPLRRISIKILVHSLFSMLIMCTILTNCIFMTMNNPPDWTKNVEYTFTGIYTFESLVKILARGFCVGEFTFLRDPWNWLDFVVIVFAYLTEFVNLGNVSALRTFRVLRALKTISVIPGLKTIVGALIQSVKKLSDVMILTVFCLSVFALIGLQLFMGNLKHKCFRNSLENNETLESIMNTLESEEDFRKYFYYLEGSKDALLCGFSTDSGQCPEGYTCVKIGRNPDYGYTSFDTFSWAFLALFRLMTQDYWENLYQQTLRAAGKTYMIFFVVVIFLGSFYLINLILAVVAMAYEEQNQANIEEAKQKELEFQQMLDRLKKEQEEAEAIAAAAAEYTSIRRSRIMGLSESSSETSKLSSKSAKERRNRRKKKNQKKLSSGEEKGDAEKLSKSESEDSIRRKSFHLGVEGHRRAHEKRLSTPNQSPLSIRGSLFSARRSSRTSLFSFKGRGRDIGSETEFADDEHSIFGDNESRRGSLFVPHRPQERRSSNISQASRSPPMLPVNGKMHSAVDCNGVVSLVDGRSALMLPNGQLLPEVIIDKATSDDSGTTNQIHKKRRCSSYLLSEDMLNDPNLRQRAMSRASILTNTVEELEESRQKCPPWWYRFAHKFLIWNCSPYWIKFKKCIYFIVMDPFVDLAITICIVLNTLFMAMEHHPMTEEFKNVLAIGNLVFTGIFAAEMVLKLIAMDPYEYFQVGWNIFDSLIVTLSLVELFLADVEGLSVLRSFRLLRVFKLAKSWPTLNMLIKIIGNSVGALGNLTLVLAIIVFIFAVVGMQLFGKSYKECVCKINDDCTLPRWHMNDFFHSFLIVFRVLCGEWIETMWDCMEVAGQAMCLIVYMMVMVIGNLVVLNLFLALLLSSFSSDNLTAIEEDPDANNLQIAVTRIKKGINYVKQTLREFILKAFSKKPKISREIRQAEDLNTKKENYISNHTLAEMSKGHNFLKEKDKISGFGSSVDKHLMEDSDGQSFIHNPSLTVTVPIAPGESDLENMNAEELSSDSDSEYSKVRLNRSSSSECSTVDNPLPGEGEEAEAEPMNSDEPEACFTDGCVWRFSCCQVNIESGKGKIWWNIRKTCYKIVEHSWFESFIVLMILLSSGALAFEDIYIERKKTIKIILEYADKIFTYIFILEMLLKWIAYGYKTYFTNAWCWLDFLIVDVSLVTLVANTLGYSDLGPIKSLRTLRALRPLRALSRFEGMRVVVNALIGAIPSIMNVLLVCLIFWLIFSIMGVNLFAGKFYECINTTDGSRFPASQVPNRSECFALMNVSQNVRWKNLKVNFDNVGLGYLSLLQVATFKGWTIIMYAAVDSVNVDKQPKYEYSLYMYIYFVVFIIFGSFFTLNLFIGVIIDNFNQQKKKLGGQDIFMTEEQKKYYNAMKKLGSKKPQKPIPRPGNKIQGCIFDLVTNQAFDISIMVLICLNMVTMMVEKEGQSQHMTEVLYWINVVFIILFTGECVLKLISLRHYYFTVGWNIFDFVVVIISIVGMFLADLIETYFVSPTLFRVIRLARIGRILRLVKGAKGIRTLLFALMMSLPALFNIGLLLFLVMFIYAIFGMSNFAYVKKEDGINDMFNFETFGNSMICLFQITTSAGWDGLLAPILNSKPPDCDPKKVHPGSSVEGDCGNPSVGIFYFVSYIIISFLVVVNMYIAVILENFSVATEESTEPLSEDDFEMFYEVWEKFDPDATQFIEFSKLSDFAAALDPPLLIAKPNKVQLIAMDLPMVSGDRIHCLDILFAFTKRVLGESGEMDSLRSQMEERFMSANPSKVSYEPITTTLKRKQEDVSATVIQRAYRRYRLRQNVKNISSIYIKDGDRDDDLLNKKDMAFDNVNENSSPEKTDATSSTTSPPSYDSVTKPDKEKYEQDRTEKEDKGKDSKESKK

Cc1cc(N2CCN(Cc3cc(F)c(C(=O)NS(=O)(=O)C4CC4)cc3Cl)CC2)ccc1Cl [the free base of formula X compound, 5-chloro-4-((4-(4-chloro-3-methylphenyl)piperazin-1-yl)methyl)-N-(cyclopropylsulfonyl)-2-fluorobenzamide]
inhibitory activity against Nav1.7: higher inhibitory activity
inhibition at 0.1 µM (read-out: Inhibition of Nav1.7, 100 nM(%)): 86.9%
inhibition at 1 µM (read-out: Inhibition of Nav1.7, 1000 nM(%)): 97.7%

— US10947202B2, “Sodium ion channel inhibitors and pharmaceutically acceptable salts and polymorphs thereof and uses thereof” (SHANGHAI HAIYAN PHARMACEUTICAL TECHNOLOGY CO., LTD., priority 2017, dated 2021)
